pIC50: −log10 of the molar value. Where two headings read alike, the source gives them in different places. Marks after values point to notes of the source that are not given here.
What was measured:
[1] = test system: OR2W1 or the OR1A1 olfactory receptor; assay: 1-octen-3-ol olfactory receptor antagonist cell-based dose-response vs 1-octen-3-ol EC80; settings: for pIC50: 1-octen-3-ol at EC80; for % Inhibition: maximum inhibition normalized to baseline agonist activity
Description: Each cell line was screened with a volatile compound library for their inhibitory properties and potential 1-octen-3-ol smell inhibition.
Single concentration monitoring of the 1-octen-3-ol induced cell activity in the presence or absence of a test compound allowed for the identification of compounds with a putative suppression or inhibitory effect.

[2] = molecular target: T1, OR51E1 olfactory receptor (Homo sapiens, UniProt Q8TCB6); assay: Butyric acid olfactory receptor antagonist cell-based dose-response vs butyric acid EC80; settings: butyric acid at EC80; Table 5
T1 construct: expressed in transfected cells
T1 sequence (Q8TCB6 1-318): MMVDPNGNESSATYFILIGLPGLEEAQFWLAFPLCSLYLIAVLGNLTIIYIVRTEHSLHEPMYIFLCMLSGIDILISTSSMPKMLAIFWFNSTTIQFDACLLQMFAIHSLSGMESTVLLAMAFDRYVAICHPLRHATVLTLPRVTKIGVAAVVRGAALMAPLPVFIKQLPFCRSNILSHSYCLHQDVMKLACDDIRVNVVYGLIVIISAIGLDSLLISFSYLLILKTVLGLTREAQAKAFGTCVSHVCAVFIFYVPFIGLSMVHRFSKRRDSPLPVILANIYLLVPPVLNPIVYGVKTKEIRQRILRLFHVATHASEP

[3] = test system: 1-octen-3-ol mushroom/earthy/fungal odor perception; assay: Human sensory performance of test compounds with and without 1-octen-3-ol; type: in vivo; settings: for % Mushroom/Earthy/Fungal Odor: Test Compound Only
[4] = test system: OR11A1, or the OR2M3 olfactory receptor; assay: Geonol olfactory receptor antagonist cell-based screening, inhibitory dose-response vs geonol EC80; parameters: species or system human; settings: geonol at EC80
[5] = test system: geonol receptors Olfr339, Olfr1487, Olfr1A1, OR11A1, Olfr96; assay: Antagonists of geonol receptors (Example 11); type: cell-based, mouse and human; parameters: Inhibition(%): concentration or dose not given beside the values; settings: Table 18
Olfr738 = Olfr738 (Mus musculus, UniProt L7N1X7); assay: Indole antagonist dose-response, cAMP HTRF in HEK293T, vs indole EC80; type: cell-based; settings: for Olfr738 % Inhibition: Table 22, first listing
Procedure: (§1) Using a cell-based assay, mouse receptor Olfr738, Olfr739, Olfr740, Olfr741, 0fr742, Olfr743, Olfr744, Olfr746, Olfr748 and Olfr749 were tested in an HEK293T cell line wherein the endogenous RTP1 gene has been activated and the odorant receptor chaperone was expressed (described in WO2016201153A1). The receptor genes were tagged with a Flag-Rho tag combination. Receptor genes were co-transfected with the canonical olfactory human G-protein alpha subunit Golf gene. Co-expression of the human Golf activates the Gs transduction pathway that leads to an internal cAMP increase upon binding to the appropriate ligand (indole here). Odorant-induced activity was detected by measuring the cAMP increase in the cytosol using an HTRF based kit (CisBio, cAMP dynamic 2 kit, cat. 62AM4PEJ).

Olfr741 = Olfr741 (Mus musculus, UniProt L7N1Y5); assay: as above; type: cell-based; settings: Table 22, first listing
Procedure: as §1

Olfr740 = Olfr740 (Mus musculus, UniProt E9PV79); assay: as above; type: cell-based; settings: for Emax: HEK-293T, read-out: Olfr740 % Inhibition
Procedure: as §1

Olfr742 = Olfr742 (Mus musculus, UniProt A2RTP5); assay: as above; type: cell-based; settings: for Emax: HEK-293T, read-out: Olfr742 % Inhibition
Procedure: as §1

[6] = test system: geonol earthy/moss odor perception; assay: Human sensory performance of test compounds with and without geonol; type: in vivo; settings: for % Earthy/Moss Odor: Test Compound Only
Description: Sensory Evaluation: Five 16 oz glass jars containing either REF (geonol only), geonol only control, antagonist only, mixture of geonol and isointense antagonist, or mixture of geonol and low intensity antagonist were presented to the panelists (last four samples were randomized across panelists). The panelists were asked to familiarize themselves with the earthy/moss odor quality from the REF jar first, then rate the pleasantness, earthy/moss odor intensity and overall odor intensity of the next four samples on a 0-10 linear scale. The inter-stimulus interval between the samples was two minutes to avoid adaptation. […]
The results are shown in Tables 16 and 17, and FIGS. 3 to 5.

[7] = test system: 1-octen-3-ol receptors OR2W1, Olfr93, Olfr120, Olfr398; assay: Antagonists of 1-octen-3-ol receptors (Example 11); type: cell-based, mouse and human; parameters: Inhibition(%): concentration or dose not given beside the values; settings: Table 19
[8] = test system: geonol malodor (earthy/moss odor) perception; assay: Sensory evaluation of geonol earthy/moss odor in iso-intense binary mixtures (glass jars); type: in vivo, human; settings: iso-intense binary mixture
Description: Sensory Evaluation: Five 16 oz glass jars containing either REF (geonol only), geonol only control, antagonist only, mixture of geonol and isointense antagonist, or mixture of geonol and low intensity antagonist were presented to the panelists (last four samples were randomized across panelists). The panelists were asked to familiarize themselves with the earthy/moss odor quality from the REF jar first, then rate the pleasantness, earthy/moss odor intensity and overall odor intensity of the next four samples on a 0-10 linear scale. The inter-stimulus interval between the samples was two minutes to avoid adaptation.

[9] = Low Dilution Test Compound + 1-octen-3-ol (0.15%)
[10] = Medium Dilution Test Compound + 1-octen-3-ol (0.15%)
[11] = Table 22, first listing, vs indole EC80
[12] = Table 22, first listing (r7-r45), vs indole EC80, read-out: Olfr740 IC50
[13] = Table 22, first listing (r7-r45), vs indole EC80, read-out: Olfr742 IC50

Olfr742, sequence (A2RTP5 entry or part of it): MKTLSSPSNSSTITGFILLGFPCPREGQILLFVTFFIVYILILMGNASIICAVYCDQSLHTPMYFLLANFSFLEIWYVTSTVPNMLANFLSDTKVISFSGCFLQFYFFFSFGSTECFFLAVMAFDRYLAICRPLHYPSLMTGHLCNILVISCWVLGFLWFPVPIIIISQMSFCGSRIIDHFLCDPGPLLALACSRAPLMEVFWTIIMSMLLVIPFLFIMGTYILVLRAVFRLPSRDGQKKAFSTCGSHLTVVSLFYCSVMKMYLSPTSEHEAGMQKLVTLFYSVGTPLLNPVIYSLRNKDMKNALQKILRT
Olfr740, sequence (E9PV79 entry or part of it): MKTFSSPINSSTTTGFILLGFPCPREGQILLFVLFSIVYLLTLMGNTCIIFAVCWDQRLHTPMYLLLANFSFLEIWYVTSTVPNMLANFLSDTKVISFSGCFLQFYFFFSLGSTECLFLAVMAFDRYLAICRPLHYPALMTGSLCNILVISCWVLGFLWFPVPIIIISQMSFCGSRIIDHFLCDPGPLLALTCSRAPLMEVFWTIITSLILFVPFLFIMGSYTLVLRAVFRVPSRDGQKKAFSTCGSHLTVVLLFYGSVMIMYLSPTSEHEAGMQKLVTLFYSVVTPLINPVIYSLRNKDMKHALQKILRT
Olfr738, sequence (L7N1X7 entry or part of it): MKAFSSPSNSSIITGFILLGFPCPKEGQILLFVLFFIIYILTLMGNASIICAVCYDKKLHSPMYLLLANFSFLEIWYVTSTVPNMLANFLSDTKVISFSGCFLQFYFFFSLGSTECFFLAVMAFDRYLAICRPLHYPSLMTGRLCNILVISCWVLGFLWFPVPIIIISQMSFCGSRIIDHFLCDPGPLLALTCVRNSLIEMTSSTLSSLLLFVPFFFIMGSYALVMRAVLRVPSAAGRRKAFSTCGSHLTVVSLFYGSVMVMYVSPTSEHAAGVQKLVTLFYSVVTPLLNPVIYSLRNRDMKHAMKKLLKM
Olfr741, sequence (L7N1Y5 entry or part of it): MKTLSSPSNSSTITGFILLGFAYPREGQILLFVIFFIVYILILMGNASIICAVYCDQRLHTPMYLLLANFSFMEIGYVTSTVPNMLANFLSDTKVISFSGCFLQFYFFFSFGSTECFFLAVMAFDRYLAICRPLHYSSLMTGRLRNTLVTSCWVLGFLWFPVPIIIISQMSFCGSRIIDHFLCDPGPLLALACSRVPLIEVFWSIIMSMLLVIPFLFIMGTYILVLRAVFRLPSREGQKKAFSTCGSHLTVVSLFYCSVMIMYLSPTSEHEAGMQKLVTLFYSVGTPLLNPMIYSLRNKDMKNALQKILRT

Molecule: C=C1CC[C@H]2O[C@]2(C)CC[C@@H]2[C@@H]1CC2(C)C
- pIC50 [1]: 4.60
- % Inhibition [1]: 123.63%
- pIC50 [2]: 4.01

Molecule: 1-(4,8-dimethyl-12-methylidenecyclododeca-4,8-dien-1-yl)ethanone; 1-(2,6,10-trimethylcyclododeca-1,5,9-trien-1-yl)ethanone; 1-(2,6,10-trimethylcyclododeca-2,5,9-trien-1-yl)ethanone
- pIC50 [1]: 4.08
- % Inhibition [1]: 113.23%
- pIC50 [2]: 4.00
- % Mushroom/Earthy/Fungal Odor Remaining [3, 9]: 88.90%
- % Mushroom/Earthy/Fungal Odor Remaining [3, 10]: 68.50%
- % Mushroom/Earthy/Fungal Odor [3]: 26.70%
- % Inhibition [4]: 20%
- pIC50 ([4]; read-out: IC50): 3.52

Molecule: CC1CCCCCCCCCCCCC(=O)C1 (racemic) [(+−)-3-methylcyclopentadecanone]
- pIC50 [1]: 4.36
- % Inhibition [1]: 113.50%
- pIC50 [2]: 3.80
- % Mushroom/Earthy/Fungal Odor [3]: 11.60%

Molecule: CC1(C)C2C[C@H]3CCC(=O)C=C3[C@@H]1C2 (single isomer, unassigned; (+))
- pIC50 [1]: 3.71
- % Inhibition [1]: 128.51%

Molecule: CC1C(C)(C)C2=C(C(=O)CCC2)C1(C)C (centres unmarked) [1,1,2,3,3-pentamethyl-2,5,6,7-tetrahydroinden-4-one]
- pIC50 [1]: 4.29
- % Inhibition [1]: 118.44%
- pIC50 [5]: 3.57
- Inhibition(%) [5]: 71%
- % Mushroom/Earthy/Fungal Odor [3]: 25.90%
- pIC50 (Olfr738; Table 22, first listing (r7-r45), vs indole EC80, read-out: Olfr738 IC50): 4.67
- Olfr738 % Inhibition (Olfr738; vs indole EC80): 61.33%
- pIC50 (Olfr741): 2.59
- Olfr741 % Inhibition (Olfr741): 140.61%
- Emax (Olfr740; [11]): 217%
- pIC50 (Olfr740; [12]): 4.92
- Emax (Olfr742; [11]): 120%
- pIC50 (Olfr742; [13]): 3.60

Molecule: O=C1CCCCCCCCCCC(=O)OCCO1 [1,4-dioxacyclohexadecane-5,16-dione]
- pIC50 [1]: 4.62
- % Inhibition [1]: 116.54%
- pIC50 [5]: 3.87
- Inhibition(%) [5]: 33%
- % Mushroom/Earthy/Fungal Odor [3]: 14.90%

Molecule: CC1C(=O)c2ccccc2C1(C)C (centres unmarked) [2,3,3-trimethyl-2H-inden-1-one]
- pIC50 [1]: 4.12
- % Inhibition [1]: 128.39%

Molecule: CC1C(=O)c2ccccc2C1(C)C (centres unmarked) [2,3,3-trimethyl-2~{H}-inden-1-one]
- % Mushroom/Earthy/Fungal Odor Remaining [3, 9]: 94.40%
- % Mushroom/Earthy/Fungal Odor Remaining [3, 10]: 57.90%
- % Mushroom/Earthy/Fungal Odor [3]: 16.50%

Molecule: CC1CC(C)(c2ccccc2)CO1 (centres unmarked) [2,4-dimethyl-4-phenyloxolane]
- Emax (Olfr740; [11]): 100%
- pIC50 (Olfr740; [12]): 4.29

Molecule: Cc1ccc(CC(C)C=O)cc1 (centres unmarked) [2-methyl-3-(4-methylphenyl) propanal]
- Emax (Olfr742; [11]): 37.2%
- pIC50 (Olfr742; [13]): 4.05

Molecule: CC(=CC=O)CCC(C)=C(C)C [3,6,7-trimethylocta-2,6-dienal]
- % Mushroom/Earthy/Fungal Odor [3]: 16.40%
- % Earthy/Moss Odor [6]: 26.90%

Molecule: CC(C)(C)c1ccc(CCC=O)cc1 [3-(4-tert-butylphenyl)propanal]
- % Inhibition [4]: 50%
- pIC50 ([4]; read-out: IC50): 3.50

Molecule: CC(CC=O)CCc1ccccc1 (centres unmarked) [3-methyl-5-phenylpentanal]
- Emax (Olfr740; [11]): 110%
- pIC50 (Olfr740; [12]): 4.79

Molecule: CC(CC=O)c1ccccc1 (centres unmarked) [3-phenylbutanal]
- Emax (Olfr742; [11]): 113%
- pIC50 (Olfr742; [13]): 4.35

Molecule: CC(=O)CCC1=C(C)CCCC1(C)C [4-(2,6,6-trimethylcyclohexen-1-yl)butan-2-one]
- pIC50 [5]: 3.93
- Inhibition(%) [5]: 36%
- % Earthy/Moss Odor [6]: 30.30%
- pIC50 [7]: 3.83
- Inhibition(%) [7]: 40%

Molecule: CC(C)=CCCC(C)=CCCc1ccncc1 [4-(4,8-dimethylnona-3,7-dienyl)pyridine]
- pIC50 [1]: 3.87
- % Inhibition [1]: 111.87%
- % Mushroom/Earthy/Fungal Odor [3]: 44.40%

Molecule: CC(CC=O)CCCC(C)(C)O (centres unmarked) [7-hydroxy-3,7-dimethyloctanal]
- % Remaining in human sensory tests [8]: 39* %

Molecule: C[C@@H](CC=O)CCCC(C)(C)O [(3~{R})-7-hydroxy-3,7-dimethyloctanal]
- % Mushroom/Earthy/Fungal Odor Remaining [3, 9]: 70.00%
- % Mushroom/Earthy/Fungal Odor Remaining [3, 10]: 56.50%
- % Mushroom/Earthy/Fungal Odor [3]: 20.70%
- % Earthy/Moss Odor Remaining ([6]; Low Dilution Test Compound + Geonol (0.1%)): 68.20%
- % Earthy/Moss Odor Remaining ([6]; Medium Dilution Test Compound + Geonol (0.1%)): 57.20%
- % Earthy/Moss Odor [6]: 30.30%

Molecule: CC(=O)OC(C)CC(C)(C)c1ccccc1 (centres unmarked) [(4-methyl-4-phenylpentan-2-yl) acetate]
- pIC50 [1]: 4.21
- % Inhibition [1]: 98.90%
- pIC50 [2]: 4.23
- pIC50 [5]: 3.20
- Inhibition(%) [5]: 84%
- % Mushroom/Earthy/Fungal Odor [3]: 52.70%
- pIC50 [7]: 4.21
- Inhibition(%) [7]: 119%

Molecule: C=C(C)[C@@H]1CCC2=CC(=O)C[C@@H](C)[C@]2(C)C1 [(4R,4aS,6R)-4,4a-dimethyl-6-prop-1-en-2-yl-3,4,5,6,7,8-hexahydronaphthalen-2-one]
- % Inhibition [4]: 50%
- pIC50 ([4]; read-out: IC50): 3.31
- % Earthy/Moss Odor [6]: 70.60%
- pIC50 [7]: 4.44
- Inhibition(%) [7]: 39%

Molecule: O=C1CCCCCCC/C=C/CCCCCCC1 [(9<I>E</I>)-cycloheptadec-9-en-1-one]
- pIC50 [1]: 3.68
- % Inhibition [1]: 97.22%

Molecule: CC(C)=CCC[C@@H](C)CC#N [(−)-(R)-3,7-dimethyl-6-octenenitrile]
- % Inhibition [4]: 10%
- pIC50 ([4]; read-out: IC50): 3.52

Molecule: CCCCCOC(=O)Cc1ccccc1 [Amyl Phenylacetate]
- pIC50 (Olfr738): 4.08
- Olfr738 % Inhibition (Olfr738; vs indole EC80): 18.44%
- pIC50 (Olfr740): 4.39
- Emax (Olfr740): 61%
- pIC50 (Olfr742): 3.85
- Emax (Olfr742): 18%

Molecule: O=C1CCCCCCCCCCC1 [Clyclododecanone, cyclododecanone]
- pIC50 [1]: 5.06
- % Inhibition [1]: 118.47%

Molecule: Cc1ccc(C(C)C)cc1O [Compound 2-methyl-5-propan-2-ylphenol, 2-methyl-5-propan-2-ylphenol]
- pIC50 [4]: 3.67
- % Earthy/Moss Odor [6]: 40.10%

Molecule: O=C1CCC=CCCCCCCCCCC1 [Cyclopentadec-4-en-1-one]
- pIC50 [1]: 3.81
- % Inhibition [1]: 90.98%

Molecule: O=C1CCCCCCCCCCCCCCO1 [OXACYCLOHEXADECAN-2-ONE]
- pIC50 [1]: 4.49
- % Inhibition [1]: 111.31%

Molecule: CCCCCO [Pentanol, 1-, pentanol]
- pIC50 [1]: 4.55
- % Inhibition [1]: 94.31%

Molecule: CCC=CCC=CC=CC(=O)OCC [ethyl deca-2,4,7-trienoate]
- % Mushroom/Earthy/Fungal Odor [3]: 56.50%
- % Earthy/Moss Odor [6]: 62.20%

Molecule: CC(C)Cc1ccc2ccccc2n1 [isobutylquinoline, 2-ISOBUTYLQUINOLINE]
- pIC50 [1]: < 3.22
- % Inhibition [1]: 30.14%
- % Mushroom/Earthy/Fungal Odor [3]: 27.30%
- % Inhibition [4]: 45%
- % Earthy/Moss Odor [6]: 37.80%

Molecule: CCCCCC/C=C/C=O [nonylenic aldehyde]
- % Inhibition [4]: 30%
- pIC50 ([4]; read-out: IC50): 3.82

Molecule: O=C1CCCCCCCCCCCCCCO1 [oxacyclohexadecan-2-one]
- pIC50 [5]: 3.54
- Inhibition(%) [5]: 34%
- % Mushroom/Earthy/Fungal Odor [3]: 13.90%
- % Earthy/Moss Odor [6]: 18.70%

— patent publication US20230233425A1, “USE OF VOLATILE COMPOSITIONS TO LIMIT OR ELIMINATE THE PERCEPTION OF MALODOR” (Firmenich SA, priority 2017, published 2023)
